Values of other authors in article PMC10499419 (Clinical and Translational Science, 2023).

Test system: healthy subjects

For `CN1C(=O)[C@@H](NC(=O)c2nnc(Cc3ccccc3)[nH]2)COc2ccccc21` [GSK2982772], which “Tolerability in healthy subjects” value is on record?
Its value is “well‐tolerated”.
